Results reported in the NIST ThermoML archive (doi:10.1021/je800266e).
± gives the expanded uncertainty stated by the source.

Assays:
[1] = for Triple point temperature: Adiabatic calorimetry; for Normal melting temperature: DTA
[2] = Molar enthalpy of transition or fusion
[3] = molar heat capacity at constant pressure; details: 101.33 kPa, Small (less than 1 g) adiabatic calorimetry

CCC(=O)[c-]1cccc1.[Fe+2].c1cc[cH-]c1 [propanoylferrocene]
[1], Crystal
Details	Normal melting temperature [°C]	Triple point temperature [K]
–	5.1 ± 2	276.83 ± 1

Details	Molar enthalpy of transition or fusion [kcal/mol]	molar heat capacity at constant pressure [J/K/mol]
[2], Crystal, Adiabatic calorimetry	3.04 ± 0.0813	–
[2], Crystal, DSC	3.51 ± 0.239	–
[3], 10 K, Crystal	–	4.607 ± 0.097
[3], 15 K, Crystal	–	11.25 ± 0.18
[3], 20 K, Crystal	–	18.61 ± 0.25
[3], 25 K, Crystal	–	26.27 ± 0.28
[3], 30 K, Crystal	–	34.16 ± 0.27
[3], 35 K, Crystal	–	42.07 ± 0.31
[3], 40 K, Crystal	–	49.63 ± 0.35
[3], 45 K, Crystal	–	56.35 ± 0.38
[3], 50 K, Crystal	–	61.76 ± 0.41
[3], 55 K, Crystal	–	66.08 ± 0.43
[3], 60 K, Crystal	–	70.11 ± 0.45
[3], 65 K, Crystal	–	74.36 ± 0.47
[3], 70 K, Crystal	–	79.11 ± 0.5
[3], 75 K, Crystal	–	84.35 ± 0.52
[3], 80 K, Crystal	–	89.8 ± 0.55
[3], 90 K, Crystal	–	99.79 ± 0.6
[3], 100 K, Crystal	–	108.7 ± 0.6
[3], 110 K, Crystal	–	116.7 ± 0.7
[3], 120 K, Crystal	–	124.2 ± 0.7
[3], 130 K, Crystal	–	131.6 ± 0.7
[3], 140 K, Crystal	–	138.9 ± 0.8
[3], 150 K, Crystal	–	146.4 ± 0.8
[3], 160 K, Crystal	–	154 ± 0.8
[3], 170 K, Crystal	–	161.9 ± 0.8
[3], 180 K, Crystal	–	170 ± 0.9
[3], 190 K, Crystal	–	178.3 ± 0.9
[3], 200 K, Crystal	–	186.8 ± 0.9
[3], 210 K, Crystal	–	195.4 ± 1
[3], 220 K, Crystal	–	204.1 ± 1
[3], 230 K, Crystal	–	212.9 ± 1.1
[3], 240 K, Crystal	–	221.9 ± 1.1
[3], 250 K, Crystal	–	231 ± 1.1
[3], 260 K, Crystal	–	240.3 ± 1.2
[3], 270 K, Crystal	–	250.1 ± 1.2
[3], 280 K, Crystal	–	260.5 ± 1.2
[3], 290 K, Crystal	–	271.7 ± 1.3
[3], 298.15 K, Crystal	–	280.7 ± 1.3
[3], 300 K, Crystal	–	282.7 ± 1.3
[3], 310 K, Crystal	–	293.8 ± 1.4
[3], 311.13 K, Crystal	–	295 ± 1.4
[3], 311.13 K, Liquid	–	347.6 ± 1.6
[3], 320 K, Liquid	–	353.3 ± 1.6
[3], 330 K, Liquid	–	359.7 ± 1.6
[3], 340 K, Liquid	–	365.7 ± 1.7
[3], 350 K, Liquid	–	372.9 ± 1.7
[3], 360 K, Liquid	–	378.5 ± 1.7
[3], 370 K, Liquid	–	381.9 ± 1.7

CCC[c-]1cccc1.[Fe+2].c1cc[cH-]c1 [propylferrocene]
Details	Molar enthalpy of transition or fusion, Crystal 1, Adiabatic calorimetry [kcal/mol]	Molar enthalpy of transition or fusion, Crystal 1, DSC [kcal/mol]	Molar enthalpy of transition or fusion, Crystal 2, Adiabatic calorimetry [kcal/mol]	Normal melting temperature, Crystal 1 [°C]	Triple point temperature, Crystal 1 [K]	Triple point temperature, Crystal 2 [K]
[1]	–	–	–	38.47 ± 2	311.62 ± 1	186.7 ± 0.6
[2]	4.58 ± 0.0574	4.71 ± 0.239	0.294 ± 0.00956	–	–	–

[3]
Details	molar heat capacity at constant pressure [J/K/mol]
5 K, Crystal 2	0.5339 ± 0.032
10 K, Crystal 2	3.806 ± 0.084
15 K, Crystal 2	11.48 ± 0.18
20 K, Crystal 2	20.55 ± 0.27
25 K, Crystal 2	29.5 ± 0.32
30 K, Crystal 2	37.6 ± 0.29
35 K, Crystal 2	44.82 ± 0.33
40 K, Crystal 2	51.46 ± 0.36
45 K, Crystal 2	57.41 ± 0.39
50 K, Crystal 2	62.94 ± 0.42
55 K, Crystal 2	68.11 ± 0.44
60 K, Crystal 2	72.96 ± 0.47
65 K, Crystal 2	77.55 ± 0.49
70 K, Crystal 2	81.91 ± 0.51
75 K, Crystal 2	86.11 ± 0.53
80 K, Crystal 2	89.89 ± 0.55
90 K, Crystal 2	98.25 ± 0.59
100 K, Crystal 2	106.2 ± 0.6
110 K, Crystal 2	114.1 ± 0.7
120 K, Crystal 2	122 ± 0.7
130 K, Crystal 2	130.2 ± 0.7
140 K, Crystal 2	139.3 ± 0.8
150 K, Crystal 2	149.6 ± 0.8
160 K, Crystal 2	161.7 ± 0.8
170 K, Crystal 2	173.8 ± 0.9
180 K, Crystal 2	185.9 ± 0.9
186.7 K, Crystal 1	191.3 ± 1
186.7 K, Crystal 2	194 ± 1
190 K, Crystal 1	193.3 ± 1
200 K, Crystal 1	199.5 ± 1
210 K, Crystal 1	205.6 ± 1
220 K, Crystal 1	212.1 ± 1
230 K, Crystal 1	220.2 ± 1.1
240 K, Crystal 1	230.2 ± 1.1
250 K, Crystal 1	244.6 ± 1.2
260 K, Crystal 1	274.7 ± 1.3
270 K, Crystal 1	324 ± 1.5
276.03 K, Crystal 1	286.8 ± 1.4
276.03 K, Liquid	305.9 ± 1.4
280 K, Liquid	308.4 ± 1.4
290 K, Liquid	314.9 ± 1.5
298.15 K, Liquid	319.5 ± 1.5
300 K, Liquid	320.5 ± 1.5
310 K, Liquid	325.8 ± 1.5
320 K, Liquid	331.8 ± 1.5
330 K, Liquid	338.2 ± 1.6
340 K, Liquid	344.4 ± 1.6
350 K, Liquid	350.7 ± 1.6
360 K, Liquid	356.6 ± 1.6
370 K, Liquid	361.5 ± 1.6
